# Values quoted from earlier work as cited in US12208127B2, “Preparation and use of cannabis nano-formulation” (Apurano Pharmaceuticals GmbH, priority 2020, dated 2025).
# Like-named read-outs stand apart in the source and are kept apart here.
# What was measured:
# [1] = higher formation after administration
# [2] = some pharmacological animal experiments
# [3] = i.v. single dose 1 mg
structure (smiles),measurement,setting,value
"CCCCCc1cc(O)c2c(c1)OC(C)(C)[C@@H]1CCC(C)=C[C@@H]21 [dronabinol as capsule, dronabinol]",formation of 11-OH-THC compared to THC,[1],3 fold
"CCCCCc1cc(O)c2c(c1)OC(C)(C)[C@@H]1CCC(C)=C[C@@H]21 [THC, tetrahydrocannabinol]",average plasma clearance rate,naïve THC users,approximately 36 L/h
same,average plasma clearance rate,regular users,~60 L/h
"CCCCCc1cc(O)c2c(c1)OC(C)(C)[C@@H]1CCC(CO)=C[C@@H]21 [Example 11-OH-THC, 11-OH-THC]",psychotropic side effects relative to THC,[2],three to seven
same,time to tachycardia and psychological high,[3],3-5 minutes
